Laboratory results published in patent US20230048888A1, “USE OF TRIAZOLOTRIAZINE DERIVATIVE IN TREATMENT OF DISEASES” (ZHEJIANG VIMGREEN PHARMACEUTICALS, LTD., priority 2019, published 2023).
Read-outs that look alike come from different tables or passages of the source.

Experiment: Pharmacokinetics of acetate of Compound 22 in SD rats with single and repeated administration
Assay type: in vivo
Conditions: Sprague-Dawley, rat, plasma; for AUC(0-t): read-out: AUC0-t; for Cmax: read-out: Cmax; for half-life: read-out: T1/2 (converted); for Tmax: read-out: Tmax (median)
Method: The formulation for Group 5 was prepared before administration on Day 1, and then, divided into daily doses and stored at 5±3° C. After taking out the formulations on the day of administration, the formulations should be let stand at room temperature for at least 30 minutes before administration.
After blood collection, the blood collection tube containing the anticoagulant was turned upside down several times to mix well, and placed on wet ice before centrifugation. Within 60 minutes after blood collection, the samples were centrifuged at 2000 g for 10 minutes at 2-8° C. to separate red blood cells, thereby obtaining plasma samples. The plasma samples were transferred to cryovials and stored at −75±15° C. until analysis.
Blood samples were collected from SD rats at room temperature before administration and within 24 hours after administration. All collected samples were placed on wet ice before centrifugation and stored at −75±15° C. until analysis.
The mass spectrometer was Applied Biosystems/AB Sciex Triple Quad 4500.
Pharmacokinetic data was calculated using the linear logarithmic trapezoidal method, with a weight of 1/(Y*Y). Samples with the sample concentration below the lower limit of quantification were excluded from the calculation of pharmacokinetic parameters. […] The mean time to peak (Tmax) was represented as a median.

[1] = both sexes, po, 63 mg/kg, Group 5 PO 63 mg/kg repeated, Day 7, Overall
[2] = both sexes, po, 189 mg/kg, Group 4 PO 189 mg/kg single, Overall
[3] = female, iv, 2 mg/kg, Group 1 IV 2.0 mg/kg single, Female
[4] = female, po, 21 mg/kg, Group 2 PO 21 mg/kg single, Female
[5] = female, po, 63 mg/kg, Group 3 PO 63 mg/kg single, Female
[6] = female, po, 63 mg/kg, Group 5 PO 63 mg/kg repeated, Day 1, Female
[7] = female, po, 63 mg/kg, Group 5 PO 63 mg/kg repeated, Day 7, Female
[8] = female, po, 189 mg/kg, Group 4 PO 189 mg/kg single, Female
[9] = male, iv, 2 mg/kg, Group 1 IV 2.0 mg/kg single, Male
[10] = male, po, 21 mg/kg, Group 2 PO 21 mg/kg single, Male
[11] = male, po, 63 mg/kg, Group 3 PO 63 mg/kg single, Male
[12] = male, po, 63 mg/kg, Group 5 PO 63 mg/kg repeated, Day 1, Male
[13] = male, po, 63 mg/kg, Group 5 PO 63 mg/kg repeated, Day 7, Male
[14] = male, po, 189 mg/kg, Group 4 PO 189 mg/kg single, Male

Work on `CC(=O)O.Nc1nc(NCCc2ccc(NC3COC3)cc2)nc2nc(-c3ccco3)nn12` [Acetate of Compound 22, 2-(furan-2-yl)-N5-(4-(oxetane-3-ylamino)phenethyl)-[1,2,4]triazolo[1,5-a][1,3,5]triazine-5,7-diamine acetate] yielded an AUC(0-t) [1] of 127 ± 40.7 µg·h/mL, a Cmax [1] of 38300 ± 8840 ng/mL and a half-life [1] of 3.21 ± 0.615 h. The Tmax [1] was 1 h, the AUC(0-t) [2] was 241 ± 39.1 µg·h/mL and the Cmax [2] was 51800 ± 11800 ng/mL. It also gave a half-life [2] of 5.26 ± 3.05 h, a Tmax [2] of 2 h and an AUC(0-t) [3] of 5.85 ± 0.149 µg·h/mL. The half-life [3] was 4.7 ± 3.22 h, the AUC(0-t) [4] was 43.5 ± 4.15 µg·h/mL and the Cmax [4] was 20100 ± 3860 ng/mL. The half-life [4] was 3.73 ± 0.771 h, the Tmax [4] was 0.5 h and the AUC(0-t) [5] was 137 ± 40.4 µg·h/mL. It also gave a Cmax [5] of 30500 ± 9710 ng/mL, a half-life [5] of 2.91 ± 0.949 h and a Tmax [5] of 1 h. The AUC(0-t) [6] was 142 ± 23.1 µg·h/mL, the Cmax [6] was 37700 ± 2380 ng/mL and the half-life [6] was 2.4 ± 0.523 h. For the same molecule, the Tmax [6] was 2 h, the AUC(0-t) [7] was 157 ± 36.9 µg·h/mL and the Cmax [7] was 45600 ± 1550 ng/mL. The half-life [7] was 2.73 ± 0.359 h, the Tmax [7] was 1 h and the AUC(0-t) [8] was 248 ± 55.6 µg·h/mL. For the same molecule, the Cmax [8] was 59600 ± 12100 ng/mL, the half-life [8] was 7.63 h and the Tmax [8] was 1 h. The AUC(0-t) [9] was 4.87 ± 0.601 µg·h/mL, the half-life [9] was 1.43 h and the AUC(0-t) [10] was 42 ± 10.5 µg·h/mL. It also gave a Cmax [10] of 16600 ± 4100 ng/mL, a half-life [10] of 3.21 ± 0.304 h and a Tmax [10] of 0.5 h. For the same molecule, the AUC(0-t) [11] was 87.3 ± 3.04 µg·h/mL, the Cmax [11] was 24200 ± 2340 ng/mL and the half-life [11] was 3.1 ± 0.251 h. The Tmax [11] was 1 h, the AUC(0-t) [12] was 79.7 ± 31.5 µg·h/mL and the Cmax [12] was 19900 ± 9080 ng/mL. It also gave a half-life [12] of 4.26 ± 2.04 h, a Tmax [12] of 1 h and an AUC(0-t) [13] of 98.1 ± 14.7 µg·h/mL. For the same molecule, the Cmax [13] was 31000 ± 5750 ng/mL, the half-life [13] was 3.69 ± 0.342 h and the Tmax [13] was 1 h. The AUC(0-t) [14] was 235 ± 24.3 µg·h/mL, the Cmax [14] was 44100 ± 4710 ng/mL and the half-life [14] was 3.68 ± 1.22 h. The Tmax [14] was 4 h.
